# Test results reported in patent publication US8946426B2, “Substituted bicyclic heterocyclic compounds as gamma secretase modulators” (Janssen Pharmaceuticals, Inc., priority 2009, dated 2015).
# How the values were obtained:
# Type in all cases: cell-based
# [1] = test system: Aβtotal; assay: Method 2: Aβtotal Alphalisa in supernatant of SKNBE2 cells carrying APP 695-wild type (Table 7c); conditions: Method 2, Alphalisa, overnight incubation
# Procedure: (§1) Screening was carried out using SKNBE2 cells carrying the APP 695-wild type, grown in Dulbecco's Modified Eagle's Medium/Nutrient mixture F-12 (DMEM/NUT-mix F-12) (HAM) provided by Invitrogen (cat no. 10371-029) containing 5% Serum/Fe supplemented with 1% non-essential amino acids, 1-glutamine 2 mM, Hepes 15 mM, penicillin 50 U/ml (units/ml) en streptomycin 50 μg/ml. Cells were grown to near confluency.
# (§2) The screening was performed using a modification of the assay as described in Citron et al (1997) Nature Medicine 3: 67. Briefly, cells were plated in a 384-well plate at 10^4 cells/well in Ultraculture (Lonza, BE12-725F) supplemented with 1% glutamine (Invitrogen, 25030-024), 1% non-essential amino acid (NEAA), penicillin 50 U/ml en streptomycin 50 μg/ml in the presence of test compound at different test concentrations. The cell/compound mixture was incubated overnight at 37° C., 5% CO2. The next day the media were assayed by two sandwich immuno-assays, for Aβ42 and Aβtotal.
# (§3) Aβtotal and Aβ42 concentrations were quantified in the cell supernatant using the Aphalisa technology (Perkin Elmer). Alphalisa is a sandwich assay using biotinylated antibody attached to streptavidin coated donorbeads and antibody conjugated to acceptor beads. In the presence of antigen, the beads come into close proximity. The excitation of the donor beads provokes the release of singlet oxygen molecules that trigger a cascade of energy transfer in the acceptor beads, resulting in light emission. To quantify the amount of Aβ42 in the cell supernatant, monoclonal antibody specific to the C-terminus of Aβ42 (JRF/cAβ42/26) was coupled to the receptor beads and biotinylated antibody specific to the N-terminus of Aβ (JRF/AβN/25) was used to react with the donor beads. To quantify the amount of Aβtotal in the cell supernatant, monoclonal antibody specific to the N-terminus of Aβ (JRF/AβN/25) was coupled to the receptor beads and biotinylated antibody specific to the mid region of Aβ (biotinylated 4G8) was used to react with the donor beads.
# (§4) To obtain the values reported in Table 7c, the data were calculated as percentage of the maximum amount of amyloid Beta 42 measured in the absence of the test compound. The sigmoidal dose response curves were analyzed using non-linear regression analysis with percentage of the control plotted against the log concentration of the compound. A 4-parameter equation was used to determine the IC50.
# [2] = test system: Aβ42; assay: Method 2: Aβ42 Alphalisa in supernatant of SKNBE2 cells carrying APP 695-wild type (Table 7c); conditions: Method 2, Alphalisa, overnight incubation
# Procedure: as §1, §2, §3, §4
# [3] = test system: Aβ42; assay: Method 1: Aβ42 sandwich ELISA in supernatant of SKNBE2 cells carrying APP 695-wild type (Tables 7a, 7b); conditions: Table 7b; averaged IC50; non-linear regression of percentage of control vs log concentration, 4-parameter equation
# Procedure: as §1, with “Gibco” for “Invitrogen”, “31330-38)” for “10371-029)”, “acids.” for “acids, 1-glutamine 2 mM, Hepes 15 mM, penicillin 50 U/ml (units/ml) en streptomycin 50 μg/ml.”
# The screening was performed using the assay as described in Citron et al (1997) Nature Medicine 3: 67. Briefly, cells were plated in a 96-well plate at about 10^5 cells/ml one day prior to addition of compounds. Compounds were added to the cells in Ultraculture (Lonza, BE12-725F) supplemented with 1% glutamine (Invitrogen, 25030-024) for 18 Hours. The media were assayed by two sandwich ELISAs, for Aβ42 and Aβtotal. Toxicity of the compounds was assayed by WST-1 cell proliferation reagent (Roche, 1 644 807) according to the manufacturer's protocol.
# To quantify the amount of Aβ42 in the cell supernatant, commercially available Enzyme-Linked-Immunosorbent-Assay (ELISA) kits were used (Innotest® β-Amyloid(1-42), Innogenetics N.V., Ghent, Belgium). The Aβ42 ELISA was performed essentially according to the manufacturer's protocol. Briefly, the standards (dilutions of synthetic Aβ1-42) were prepared in polypropylene Eppendorf with final concentrations of 8000 down to 3.9 pg/ml (½ dilution step). Samples, standards and blanks (100 μl) were added to the anti-Aβ42-coated plate supplied with the kit (the capture antibody selectively recognizes the C-terminal end of the antigen). The plate was allowed to incubate 3 H at 25° C. in order to allow formation of the antibody-amyloid complex. Following this incubation and subsequent wash steps a selective anti-Aβ-antibody conjugate (biotinylated 3D6) was added and incubated for a minimum of 1 Hour in order to allow formation of the antibody-Amyloid-antibody-complex. After incubation and appropriate wash steps, a Streptavidine-Peroxidase-Conjugate was added, followed 30 minutes later by an addition of 3,3′,5,5′-tetramethylbenzidine (TMB)/peroxide mixture, resulting in the conversion of the substrate into a coloured product. This reaction was stopped by the addition of sulfuric acid (0.9 N) and the colour intensity was measured by means of photometry with an ELISA-reader with a 450 nm filter.
# To obtain the values reported in Table 7a, the sigmoidal dose response curves were analysed by computerised curve-fitting, with percent of inhibition plotted against compound concentration. A 4-parameter equation (model 205) in XLfit was used to determine the IC50. The top and the bottom of the curve were fixed to 100 and 0, respectively, and the hill slope was fixed to 1. The IC50 represents the concentration of a compound that is required for inhibiting a biological effect by 50% (Here, it is the concentration where Aβ peptide level is reduced by 50%).
# as §4, with “7b,” for “7c,”, “IC50. The values reported in Table 7b are averaged IC50 values.” for “IC50.”
IC50 [1] [nM],IC50 [2] [nM],IC50 [3] [nM],IC50 ([1]; Homo sapiens) [nM],IC50 ([2]; Homo sapiens) [nM],Structure (SMILES)
> 10000,18,,,,COc1nc(Nc2cccc3c2nc(-c2ccc(F)cc2)n3C)ccc1-c1cnn(C)c1 [Compound 68]
5620,141,,,,COc1cc(Nc2cccc3c2nc(-c2ccc(F)cc2)n3C)ccc1-c1cnn(C)n1 [Compound 73]
4470,7410,,,,COc1cc(Nc2cccc3c2nc(-c2ccc(F)cc2)n3C)ccc1-c1cn(C)nn1 [Compound 74]
> 10000,49,,,,COc1cc(Nc2cccc3c2nc(-c2ccc(F)cc2)n3C(C)C)ccc1-c1oc(C)nc1C [Compound 80]
> 10000,112,,,,COCc1ncc(-c2ccc(Nc3cccc4c3nc(-c3ccc(F)cc3)n4C(C)C)cc2)o1 [Compound 84]
> 10000,2750,1860,,,COc1cc(Nc2cccc3c2nc(C2CCOCC2)n3C(C)C)ccc1-c1cnc(C)o1 [Compound 93]
> 10000,195,33,,,COc1cc(Nc2nc(C)cc3c2nc(-c2ccc(F)cc2)n3C)ccc1-c1ocnc1C [Compound 125]
3630,44,,,,COc1cc(Nc2nc(C)cc3c2nc(-c2ccc(F)cc2)n3C)ccc1-c1ccnc(C)c1 [Compound 127]
,,,9120,39,COc1cc(Nc2cccc3c2nc(-c2ccc(F)cc2)n3C(C)C)ccc1-c1ccnc(C)c1 [Compound 128]
5250,17,,,,COc1nc(Nc2cccc3c2nc(-c2ccc(F)cc2)n3C)ccc1-c1ccnc(C)c1 [Compound 129]
> 10000,191,,,,Cc1cc(-c2ccc(Nc3cccc4c3nc(-c3ccc(F)cc3)n4C)cc2F)ccn1 [Compound 133]
6610,60,,,,COc1cc(Nc2cccc3c2nc(-c2ccc(F)cc2)n3C)ccc1-c1ccnc(C)c1 [Compound 139]
> 10000,51,,,,COCc1c(-c2ccc(F)cc2)nc2c(Nc3ccc(-c4cnc(C)o4)c(OC)c3)cccn12 [Compound 168]
7760,162,,,,Cc1cc(-c2ccc(Nc3cccn4c(C)c(-c5ccccc5Cl)nc34)cc2F)ccn1 [Compound 182]
8710,83,,,,Cc1cc(-c2ccc(Nc3cccn4c(C)c(-c5ccccc5Cl)nc34)cc2)ccn1 [Compound 183]
> 10000,62,,,,Cc1ncc(-c2ccc(Nc3ccnc4c3nc(-c3ccc(F)cc3)n4C)cc2F)o1 [Compound 187]
> 10000,2400,,,,COc1cc(Nc2cc(C#N)nc3c2nc(-c2ccc(F)cc2)n3C)ccc1-c1cnc(C)o1 [Compound 189]
> 10000,12,,,,Cc1ncc(-c2ccc(Nc3cc(C(C)C)nc4c3nc(-c3ccc(F)cc3)n4C)cn2)o1 [Compound 191]
> 10000,45,,,,COc1cc(Nc2cccn3c(C)c(-c4ccccc4Cl)nc23)ccc1-c1ccnc(C)c1 [Compound 201]

# Continued, compound first:
Structure (SMILES),IC50 [1] [nM],IC50 [2] [nM],IC50 [3] [nM],IC50 ([1]; Homo sapiens) [nM],IC50 ([2]; Homo sapiens) [nM]
Cc1ncc(-c2ccc(Nc3nccc4c3nc(CC3CC3)n4C)cc2F)o1 [Compound 66],> 10000,> 10000,> 3000,,
COc1nc(Nc2cccc3c2nc(-c2ccc(F)cc2)n3C(C)C)ccc1-c1cnn(C)c1 [Compound 69],> 10000,22,,,
Cc1nc(C)c(-c2ccc(Nc3cccc4c3nc(-c3ccc(F)cc3)n4C(C)C)cc2)o1 [Compound 81],> 10000,95,,,
COc1cc(Nc2nc(C)cc3c2nc(-c2ccccc2Cl)n3C)ccc1-c1ocnc1C [Compound 113],4900,66,,,
Cc1ncoc1-c1ccc(Nc2cccc3c2nc(-c2ccc(Cl)s2)n3C(C)C)cn1 [Compound 116],> 10000,72,,,
COc1cc(Nc2cc(C(F)(F)F)cc3c2nc(CCC(F)(F)F)n3C)ccc1-c1ocnc1C [Compound 126],,741,214,,
COc1nc(Nc2cccc3c2nc(-c2ccc(F)cc2)n3C(C)C)ccc1-c1ccnc(C)c1 [Compound 130],> 10000,30,,,
Cc1cc(-c2ccc(Nc3cccc4c3nc(-c3ccc(F)cc3)n4C(C)C)cc2)ccn1 [Compound 131],> 10000,28,,,
Cc1cc(-c2ccc(Nc3nc(C)cc4c3nc(-c3ccc(F)cc3)n4C)cc2)ccn1 [Compound 132],6310,123,,,
Cc1cc(-c2ccc(Nc3cccc4c3nc(-c3ccc(F)cc3)n4C)nn2)ccn1 [Compound 135],> 10000,347,,,
Cc1cc(-c2ccc(Nc3nc(C)cc4c3nc(-c3ccc(F)cc3)n4C)cc2F)ccn1 [Compound 136],> 10000,112,,,
Cc1cc(-c2ccc(Nc3cccc4c3nc(-c3ccc(F)cc3)n4C(C)C)cc2F)ccn1 [Compound 137],> 10000,117,,,
Cc1cc(-c2ccc(Nc3cccc4c3nc(-c3ccc(F)cc3)n4C)cc2)ccn1 [Compound 138],7080,49,,,
Cc1cc(-c2ccc(Nc3cccc4c3nc(-c3ccc(F)cc3)n4C(C)C)cc2)cc(C)n1 [Compound 140],> 10000,759,,,
COc1cc(Nc2cc(C#N)cn3cc(C)nc23)ccc1-c1ocnc1C [Compound 145],6310,1050,166,,
COc1cc(Nc2cc(F)cn3cc(-c4ccc(F)cc4C)nc23)ccc1-c1ocnc1C [Compound 147],,468,85,,
COc1cc(Nc2cc(C(C)=O)cn3cc(CC(C)C)nc23)ccc1-c1ocnc1C [Compound 156],,,,8910,42
COc1cc(Nc2nccn3cc(C)nc23)ccc1-c1ocnc1C [Compound 158],> 10000,1860,,,
COc1cc(Nc2cc(Cl)cn3cc(C4CCOCC4)nc23)ccc1-c1ocnc1C [Compound 159],> 10000,269,,,
Cc1ncc(-c2cnc(Nc3cccc4c3nc(-c3ccc(F)cc3)n4C)nc2)o1 [Compound 188],,,,> 10000,> 10000
COc1nc(Nc2cccn3c(C)c(-c4ccccc4Cl)nc23)ccc1-c1ccnc(C)c1 [Compound 194],~6760,17,,,
Cc1ccc(F)cc1-c1cn2nccc(Nc3ccc(-c4ocnc4C)nc3)c2n1 [Compound 197],,,,> 10000,550
Cc1ccc(F)cc1-c1cn2nc(Cl)cc(Nc3ccc(-c4ocnc4C)nc3)c2n1 [Compound 198],6760,1180,,,
